Molecular target: T1, recombinant human PAI-1 (Homo sapiens, UniProt P05121)
T1 construct: purchased Molecular Innovations, Inc
Test: Test Example 2: human PAI-1 inhibitory activity (tPA fluorogenic substrate, pH 7.4 HEPES buffer)
Format: biochemical
Conditions: human PAI-1
Protocol: 0.1 M HEPES, 0.1 M NaCl. 1 mM EDTA. 0.1% Polyethylene glycol 8,000 (Hampton Research Corporation),
2 mM Dimethyldecylphoshine oxide [Apo-10] (Fluka Corporation)

T1 sequence (P05121 24-402): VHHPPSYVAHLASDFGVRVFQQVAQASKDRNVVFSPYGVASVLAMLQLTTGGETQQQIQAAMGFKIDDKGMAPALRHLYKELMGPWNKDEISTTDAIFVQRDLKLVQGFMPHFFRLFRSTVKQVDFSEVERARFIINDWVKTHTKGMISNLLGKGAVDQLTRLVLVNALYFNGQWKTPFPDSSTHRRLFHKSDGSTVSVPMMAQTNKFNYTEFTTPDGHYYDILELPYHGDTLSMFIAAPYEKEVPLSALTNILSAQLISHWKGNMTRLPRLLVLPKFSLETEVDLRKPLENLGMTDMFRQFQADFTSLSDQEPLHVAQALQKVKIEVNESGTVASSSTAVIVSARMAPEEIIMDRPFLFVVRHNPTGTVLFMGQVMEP

SMILES | Inhibition Rate of PAI-1 Activity (%) (compound concentration 0.1 μM) | Inhibition Rate of PAI-1 Activity (%) (compound concentration 0.3 μM) | Inhibition Rate of PAI-1 Activity (%) (compound concentration 1 μM) | Inhibition Rate of PAI-1 Activity (%) (compound concentration 3 μM)
CC(C)[C@@H]1CC[C@@H](C)C[C@H]1Oc1ccc(-c2ccc(OC(F)(F)F)cc2)cc1N(CCCCc1ccccc1)C(=O)C(=O)O [Compound 639] | 6% | 12% | 91% | 87%
CCCCCOc1ccc(-c2ccc(OC(F)(F)F)cc2)cc1N(CCCCc1ccccc1)CC(=O)O [Compound 640] | 0% | 19% | 92% | 92%
CCCCC(C(=O)O)N(Cc1ccc(C(C)(C)C)cc1)c1cccc(-c2ccc(OC(F)(F)F)cc2)c1 (centres unmarked) [Compound 641] | 9% | 53% | 95% | 95%
CCCCC(C(=O)O)N(Cc1ccc(C(C)(C)C)cc1)c1ccc(-c2ccc(OC(F)(F)F)cc2)cc1 (centres unmarked) [Compound 642] | 16% | 57% | 94% | 93%
CCCCCOc1cc(-c2ccc(OC(F)(F)F)cc2)ccc1N(CCCCc1ccccc1)CC(=O)O [Compound 643] | 0% | 18% | 38% | 92%
CC(C)(C)OCCOc1ccc(-c2ccc(OC(F)(F)F)cc2)cc1N(CCCCc1ccccc1)CC(=O)O [Compound 644] | 27% | 8% | 30% | 93%
CCCCCOc1ccc(-c2ccc(OC(F)(F)F)cc2)cc1CN(C(=O)C(=O)O)c1ccc(C(C)(C)C)cc1 [Compound 645] | 6% | 26% | 95% | >99%
O=C(O)CCCCCCCCOc1ccc(-c2ccc(OC(F)(F)F)cc2)cc1N(CCCCc1ccccc1)C(=O)C(=O)O [Compound 646] | 4% | 15% | 38% | 86%
CCCCCOc1ccc(-c2ccc(OC(F)(F)F)cc2)cc1CN(CC(=O)O)c1ccc(C(C)(C)C)cc1 [Compound 647] | 27% | 43% | 95% | 98%
CCCCCOc1cc(-c2ccc(OC(F)(F)F)cc2)ccc1CN(C(=O)C(=O)O)c1ccc(C(C)(C)C)cc1 [Compound 648] | 4% | 23% | 86% | 89%
CCCCCOc1cc(-c2ccc(OC(F)(F)F)cc2)ccc1CN(CC(=O)O)c1ccc(C(C)(C)C)cc1 [Compound 649] | 10% | 64% | 96% | 97%
CCCCCCCOc1cc(N(CCCCc2ccccc2)C(=O)C(=O)O)ccc1-c1ccc(OC(F)(F)F)cc1 [Compound 650] | 16% | 40% | >99% | >99%
COc1ccc(-c2ccc(OC(F)(F)F)cc2)cc1N(CCCCc1ccccc1)C(=O)C(=O)O [Compound 651] | 0% | 0% | 15% | 74%
CCCCCCOc1ccc(-c2ccc(OC(F)(F)F)cc2)cc1N(CCCCc1ccccc1)C(=O)C(=O)O [Compound 652] | 19% | 22% | >99% | >99%

Source: patent publication US8633245B2, “PAI-1 inhibitor” (Institute of Medicinal Molecular Design, Inc., priority 2008, dated 2014)
